Source: patent US7179829B2, “Substituted imidazolidines, process for their preparation, and their use as a medicament or diagnostic, and medicament comprising them” (Sanofi-aventis Deutschland GmbH, priority 2001, dated 2007)
Where a name gives a salt, the structure may show the parent alone. Read-outs that look alike come from different tables or passages of the source.

Assays:
imidazoline I1 receptor = details: cited from earlier work
[1] = test system: adrenergic alpha2 receptor; details: cited from earlier work
rNHE3 = rNHE3 (Rattus norvegicus, UniProt P26433); experiment: recovery of intracellular pH (pHi) after acidification, BCECF fluorescence; type: cell-based
Chain of rNHE3 (P26433 29-831): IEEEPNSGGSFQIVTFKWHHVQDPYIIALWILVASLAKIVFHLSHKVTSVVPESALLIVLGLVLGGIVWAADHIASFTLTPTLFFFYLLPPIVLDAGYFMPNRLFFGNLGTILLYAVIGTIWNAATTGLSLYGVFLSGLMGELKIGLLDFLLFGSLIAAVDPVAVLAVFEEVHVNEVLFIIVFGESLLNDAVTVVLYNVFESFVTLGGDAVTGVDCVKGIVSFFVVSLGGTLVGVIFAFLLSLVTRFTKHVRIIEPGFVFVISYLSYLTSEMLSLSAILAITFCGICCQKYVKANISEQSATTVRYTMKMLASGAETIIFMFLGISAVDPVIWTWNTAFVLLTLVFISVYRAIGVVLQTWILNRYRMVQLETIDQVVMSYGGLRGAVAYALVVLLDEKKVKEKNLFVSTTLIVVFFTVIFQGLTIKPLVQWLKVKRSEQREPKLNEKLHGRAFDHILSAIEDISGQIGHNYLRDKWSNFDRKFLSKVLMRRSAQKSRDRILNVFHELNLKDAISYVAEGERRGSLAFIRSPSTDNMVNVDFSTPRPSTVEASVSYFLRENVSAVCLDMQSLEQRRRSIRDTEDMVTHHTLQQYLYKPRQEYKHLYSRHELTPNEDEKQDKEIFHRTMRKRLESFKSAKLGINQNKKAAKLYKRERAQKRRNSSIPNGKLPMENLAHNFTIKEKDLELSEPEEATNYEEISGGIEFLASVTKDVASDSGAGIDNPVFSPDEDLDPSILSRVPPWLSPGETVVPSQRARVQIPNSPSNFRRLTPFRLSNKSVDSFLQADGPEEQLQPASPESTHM
Procedure: In this test, the recovery of the intracellular pH (pHi) after an acidification, which starts when the NHE is capable of functioning, even under bicarbonate-free conditions, was determined. For this purpose, the pHi was determined using the pH-sensitive fluorescent dye BCECF (calbiochem, the precursor BCECF-AM is employed). The cells were initially loaded with BCECF. The BCECF fluorescence was determined in a “ratio fluorescence spectrometer” (Photon Technology International, South Brunswick, N.J., USA) with excitation wavelengths of 505 and 440 nm and an emission wavelength of 535 nm, and was converted into the pHi using calibration plots. The cells were incubated in NH4Cl buffer (pH 7.4) (NH4Cl buffer: 115 mM NaCl, 20 mM NH4Cl, 5 mM KCl, 1 mM CaCl2, 1 mM MgSO4, 20 mM Hepes, 5 mM glucose, 1 mg/ml BSA; a pH of 7.4 is established with 1 M NaOH) even during the BCECF loading. The intracellular acidification was induced by addition of 975 μl of an NH4Cl-free buffer (see below) to 25 μl aliquots of the cells incubated in NH4Cl buffer. The subsequent rate of pH recovery was recorded in the case of NHE1 for two minutes, in the case of NHE2 for five minutes and in the case of NHE3 for three minutes. To calculate the inhibitory power of the tested substances, the cells were initially investigated in buffers in which complete or absolutely no pH recovery took place. For complete pH recovery (100%), the cells were incubated in Na^+-containing buffer (133.8 mM NaCl, 4.7 mM KCl, 1.25 mM CaCl2, 1.25 mM MgCl2, 0.97 mM Na2HPO4, 0.23 mM NaH2PO4, 5 mM Hepes, 5 mM glucose, a pH of 7.0 is established with 1 M NaOH). […] Recovery of the intracellular pH at the tested concentration of a substance was expressed as a percentage of the maximum recovery. Using the Sigma-Plot program, the IC50 value of the substance in question was calculated for the individual NHE subtypes using the percentages for pH recovery.

NHE3 = NHE3 (Oryctolagus cuniculus, UniProt P26432); details: cited from earlier work
Chain of NHE3 (P26432 30-832): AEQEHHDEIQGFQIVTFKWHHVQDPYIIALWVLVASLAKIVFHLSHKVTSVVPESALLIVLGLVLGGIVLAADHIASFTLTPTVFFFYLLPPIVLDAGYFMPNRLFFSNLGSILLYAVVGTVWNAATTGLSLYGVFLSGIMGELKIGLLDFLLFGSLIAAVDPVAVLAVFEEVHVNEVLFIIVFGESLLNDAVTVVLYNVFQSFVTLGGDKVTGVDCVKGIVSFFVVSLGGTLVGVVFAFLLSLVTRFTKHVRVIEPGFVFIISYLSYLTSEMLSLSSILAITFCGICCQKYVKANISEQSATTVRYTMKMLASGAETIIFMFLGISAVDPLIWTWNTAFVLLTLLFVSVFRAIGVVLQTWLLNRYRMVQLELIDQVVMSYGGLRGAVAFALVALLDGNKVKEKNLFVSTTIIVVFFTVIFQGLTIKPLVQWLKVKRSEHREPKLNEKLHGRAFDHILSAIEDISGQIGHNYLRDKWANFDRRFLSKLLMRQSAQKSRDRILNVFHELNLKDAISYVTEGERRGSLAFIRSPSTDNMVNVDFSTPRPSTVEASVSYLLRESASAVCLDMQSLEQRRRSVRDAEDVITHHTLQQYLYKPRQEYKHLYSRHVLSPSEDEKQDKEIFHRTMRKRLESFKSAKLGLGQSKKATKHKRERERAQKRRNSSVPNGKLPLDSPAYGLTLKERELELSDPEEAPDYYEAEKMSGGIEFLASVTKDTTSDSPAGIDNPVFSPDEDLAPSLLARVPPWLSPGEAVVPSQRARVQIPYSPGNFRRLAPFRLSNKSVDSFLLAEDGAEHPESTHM

[2] = pH recovery recorded for three minutes, read-out: IC50 [μM], (rNHE3)

melting point [°C]	IC50 (rNHE3; [2]) [µM]	SMILES	also measured
		Clc1cccc(Cl)c1N=C1NCCN1 [Clonidine]	affinity for the imidazoline I1 receptor (imidazoline I1 receptor): high affinity; affinity for the adrenergic alpha2 receptor [1]: high affinity
160 to 165	19	Cl.FC(F)(F)c1cccc(Cl)c1N=C1N[C@H]2CCCC[C@@H]2N1 (relative stereo) [Example 5, trans-(2-Chloro-6-trifluoromethylphenyl)-(octahydrobenzimidazol-2-ylidene)amine hydrochloride]	
		CC1NC(=Nc2c(Cl)cccc2Cl)NC1C (centres unmarked) [Example 12, (2,6-dichlorophenyl)-(4,5-dimethylimidazolidin-2-ylidene)amine nitric acid salt]	IC50 (rNHE3): ~3 µM
	1.1	CC(C)[C@@H]1NC(=Nc2c(Cl)cccc2Cl)N[C@H]1C(C)C (racemic) [Example 7, trans-(2,6-Dichlorophenyl)-(4,5-diisopropylimidazolidin-2-ylidene)amine hydrochloride]	
110		Cl.c1ccc(Oc2ccccc2N=C2N[C@@H]3CCCC[C@H]3N2)cc1	
		CC(C)[C@@H](CC[C@@H](C)[C@H]1CC[C@H]2[C@@H]3[C@H](O)C[C@H]4C[C@@H](NCCCNCCCCN)CC[C@]4(C)[C@H]3CC[C@]12C)OS(=O)(=O)O [Squalamine]	time to maximum potency as NHE3 inhibitor (NHE3): reaches its maximum potency only after one hour
